Experimental data taken from patent US20060228412A1, “(-)-Hydroxycitric acid for delaying gastric emptying” (priority 2003, published 2006).

What was measured:
[1] = cited from earlier work
[2] = at the end of 80 days; cited from earlier work
[3H]-5-HT uptake = isolated rat brain cortical slices; cited from earlier work
[3] = mice on a 10% sucrose diet; cited from earlier work
[4] = Multi-week pilot open clinical weight loss trial with extremely obese patients; assay type: in vivo, human
From the text: In the present studies, data on human usage emerged from a multi-week pilot open clinical weight loss trial with extremely obese patients which was undertaken to gauge the effects of a pouch delivery form of a potassium salt of HCA under the normal circumstances faced in clinical practice with this patient population. Sixteen patients were enrolled, three of whom were diabetics on medications and several others who were suspected of suffering from insulin resistance. The patients ingested 3-4 grams of HCA (in the form of the potassium salt) per day in two divided doses. Aside from being informed that they must eat a carbohydrate-containing meal within one hour of taking the HCA and that they should avoid eating late in the day, they were not instructed to follow any special diet or exercise plan outside their normal habits and no caloric restriction was imposed. This particular form of potassium HCA delivery typically was mixed into water or juice and consumed at mid-morning and mid-afternoon. The delivery was a water-soluble immediate release form. It was a pre-commercial preparation and nearly all of the patients complained regarding the inconvenience and poor taste of the product, albeit there were no other issues of tolerability.
A number of patients continued on the program for 6 weeks. However, most patient data was good for only 3 weeks because two of the diagnosed diabetics experienced severe hypoglycemic reactions. […] Two patients subsequently were placed on phentermine. […] The average weight loss over the 3 week period for these 14 patients was approximately 3.1 pounds per person per week. […] At therapeutically effective dosages, HCA probably should be used with diabetic populations only under a physician's care.

[5] = Blood glucose after HCA meal replacement releasing only in the small intestine; assay type: in vivo, human
From the text: In Example 1, the HCA was delivered in an immediate-release preparation. Our unexpected findings with regard to blood sugar led to the hypothesis that a relatively large dose of HCA might affect blood sugar levels in an individual whose blood sugar is in the low normal range. A dose of 1.5 grams HCA derived from potassium HCA and delivered in a special coated form designed to bypass interaction with stomach acids and to release only in the higher pH of the small intestine was used. A potassium HCA salt granulate was prepared according to Example 1 found in U.S. Pat. No. 6,447,807 and delivered via a dry powdered meal replacement designed to be mixed with liquid to provide 1.5 grams of HCA per 350 calories plain (mixed with water) or approximately 500 calories with milk. […] The subject ate a 500 calorie breakfast consisting the experimental HCA meal replacement. Two hours after this meal, subject's blood glucose level had dropped to 77 mg/dL. […] This finding seemed paradoxical in that the outstanding metabolic effect, which might be thought to indicate blood levels of the drug, was not matched by even a normal level of feelings of fullness. This implied that at least part of the satiation induced by HCA comes about prior to entry of the compound into the blood. […]

[6] = Capsaicin-HCA interaction satiety test; assay type: in vivo, human; details: 5 individuals, approximately 2 grams in water about an hour before a meal; before red pepper sauce
From the text: The meal itself began with a soup course. […] At this point, bottles of red pepper sauce were supplied and the sauce was applied liberally. […] As is true of Example 3, this provides indirect evidence that HCA acts upon a CCK-related mechanism in inducing satiety.

[7] = Immediacy of HCA-induced satiety, lemonade-like drinks prior to a meal; assay type: in vivo, human; details: 5 individuals, approximately 2 grams in sweetened lemonade-like drinks, 16-24 ounces, about 200 calories
Procedure: To test this theory, and the palatability of an HCA salt when mixed with various flavors, a study was conducted in which 5 individuals consumed approximately 2 grams potassium HCA mixed in sweetened lemonade-like drinks prior to a meal. Consumption of the drinks took place over the course of approximately one half hour and involved 16-24 ounces of fluid, but only about 200 calories.

Row | SMILES | Reduction in food consumption ([1]; experimental animals fed a high-sugar diet, single large oral dose or two divided oral doses) [%] | Minimum effective dose, once per day ([1]; oral, once per day) [mmol/kg] | Minimum effective dose, twice per day ([1]; oral, twice per day) [mmol/kg] | Net reduction in food intake compared with controls [2] [%] | Reduction in weight gain [2] [%] | [3H]-5-HT uptake ([3H]-5-HT uptake) | Leptin/white adipose tissue ratio compared with control [3] | Serum insulin compared with control [3] | Serum leptin compared with control [3] | Average weight loss ([4]; 3 week period, 14 patients, 3-4 grams HCA per day in two divided doses, immediate release pouch form) | Blood pressure ([4]; eight patients with hypertension) | Effect on blood sugar in diabetics ([4]; immediate release format, two diagnosed diabetics had severe hypoglycemic reactions) | Weight loss of one patient ([4]; over 10 weeks) [pounds] | Appetite suppression ([4]; several patients) | Anorectic action / feelings of fullness ([5]; delivery to the small intestine, by-passing the stomach) | Blood glucose level ([5]; two hours after 500 calorie meal with 1.5 grams HCA, coated form released in small intestine, fasting level before 85 mg/dL, one subject) [mg/dL] | Feeling of fullness [6] | Satiety [7]
1 | O=C(O)CC(O)(C(=O)O)C(O)C(=O)O (single isomer, unassigned; (-)) [HCA, (−)-hydroxycitric acid] | ≥ 10 | 2.63 | 0.33 | 4 | 78 | inhibit | lower | lower | lower |  |  |  |  |  |  |  |  | 
2 | O=C([O-])CC(O)(C(=O)[O-])C(O)C(=O)[O-].[K+].[K+].[K+] (stereo not drawn) [potassium HCA] |  |  |  |  |  |  |  |  |  | approximately 3.1 pounds per person per week | normalize blood pressure | strong hypoglycemic effect | 32 | good appetite suppression | blunt the anorectic actions | 77 | felt full very soon | satiated soon after the meal began
